SMILES strings stand for the structures. “Also recorded” adds a separate entry of the source.

The test system of assay [1] is HL-60 cells (NADPH oxidase / respiratory burst). Briefly: O2- formation by DMSO-differentiated HL-60 cells, PMA-stimulated. The class given is cell-based. The following applies: various concentrations. How it is done: HL-60 cells were maintained in stationary culture in RPMI 1640 medium (Gibco, Grand Island, NY) containing 10% fetal bovine serum at 37° C in an atmosphere of 95 air and 5% CO2. The cells (about 8×10^5 /ml) were differentiated into neutrophil-like cells by treatment with 1.3% DMSO for six days (Harris, et al., J. Leukocyte Biol. 37: 407-422 (1985)). The cells were treated with the indicated levels of compactin or lovastatin by addition of a 1,000-fold concentrated stock solution to the appropriate concentration on day 4 of differentiation. […] In studies of the protective effect of mevalonic acid, the compound was added as the mevalonolactone (Sigma Chemical Co., St. Louis, MO) at a concentration of 1 mM to the cell culture on days 4 to 6. […]
O2 --formation by HL-60 cells was assessed by the SOD-sensitive reduction of cytochrome c. […] Cytochrome c reduction at 550nm was continuously monitored and maximal rate and extent of the reaction calculated.

In assay [2] the test system is CD14 antigen. Description: HL-60 differentiation: CD14 antigen expression (flow cytometry). In kind it is cell-based. The following applies: compactin-treated cells. How it is done:
HL-60 cells were maintained in stationary culture in RPMI 1640 medium (Gibco, Grand Island, NY) containing 10% fetal bovine serum at 37° C in an atmosphere of 95 air and 5% CO2. The cells (about 8×10^5 /ml) were differentiated into neutrophil-like cells by treatment with 1.3% DMSO for six days (Harris, et al., J. Leukocyte Biol. 37: 407-422 (1985)). The cells were treated with the indicated levels of compactin or lovastatin by addition of a 1,000-fold concentrated stock solution to the appropriate concentration on day 4 of differentiation. […]
Cell viability was determined by uptake of propidium iodide (537-059; Calbiochem-Behring Corp., La Jolla, CA), detected from the emission fluorescence at 625/35 nm using a DM560 dichronic mirror (Krishan, J. Cell. Biol. 66: 188-192 (1975)). Expression of N-formyl peptide receptor was determined using fluorescein-labeled N-CHONle-Leu-Phe-Nle-Tyr-Lys (Molecular Probes, Inc., Eugene, OR) essentially by the method of Sklar and Finney (Sklar and Finney, Cytometry 3: 161-165 (1982)). Specificity of ligand binding was determined in the presence of 4 mM unlabeled T-boc peptide. […]
HL-60 differentiation was assessed using two distinct markers: appearance of N-formyl peptide receptors and appearance of the CD14 antigen.

In the case of `CC[C@H](C)C(=O)O[C@H]1CCC=C2C=C[C@H](C)[C@H](CC[C@@H]3C[C@@H](O)CC(=O)O3)[C@H]21` [compactin], in assay [1], the “inhibition of O2- formation in response to PMA” value was “loss in the ability of PMA to stimulate O2 --formation; also recorded: dose-dependent inhibition”. Moreover, in assay [2], the CD14 expression result is on record as “normal”.

Values taken from patent US5244916A, “Inhibition of respiratory burst using posttranslational modification inhibitors” (The Scripps Research Institute, priority 1992, dated 1993).
